Measured values reported in US20210087159A1, “TETRAHYDROCANNABINOLIC- CA[…] DERIVATIVES AND USES THEREOF” (AL&AM […]., priority 2018, published 2021).

Assays:
Experiment in all cases: CellTiter-Glo cell viability assay, cancer cell cytotoxicity/anti-proliferation panel (Chempartner)
Type in all cases: cell-based
[1] = test system: TE-6 RIKEN esophagus, carcinoma
[2] = test system: AsPC-1, pancreas, ductal carcinoma; details: for Inhibition: AsPC-1, 72 hours, compounds 10 μM starting, STS 2 μM starting, 10-pt, 3-fold dilution; for IC50: Homo sapiens, ASPC1, 72 h, read-out: IC50 (absolute IC50)
[3] = test system: Caco-2 ATCC colon adenocarcinoma
[4] = test system: PC-3 ATCC prostate adenocarcinoma
[5] = 72 h, read-out: IC50 (absolute IC50)

CCCCCc1cc2c(c(O)c1C(=O)NCCCN1CCOCC1)[C@@H]1C=C(C)CC[C@H]1C(C)(C)O2 [Ia9, (6aR,0aR)-1-hydroxy-6,6,9-trimethyl-N-(3-morpholinopropyl)-3-pentyl-6a,7,8,10a-tetrahydro-6H-benzo[c]chromene-2-carboxamide]
IC50 [1, 5]: 7.36 µM | Inhibition ([1]; TE-6, 72 hours, compounds 10 μM starting, STS 2 μM starting, 10-pt, 3-fold dilution): 67.27% | Inhibition [2]: 64.62% | IC50 [2]: 7.38 µM | Inhibition ([3]; Caco-2, 72 hours, compounds 10 μM starting, STS 2 μM starting, 10-pt, 3-fold dilution): 60.81% | IC50 ([3]; Homo sapiens, Caco-2, 72 h, read-out: IC50 (absolute IC50)): 8.87 µM | IC50 [4, 5]: 9.94 µM | Inhibition ([4]; PC-3, 72 hours, compounds 10 μM starting, STS 2 μM starting, 10-pt, 3-fold dilution): 61.13%

CCCCCc1cc2c(c(O)c1C(=O)NCCN(C)C)[C@@H]1C=C(C)CC[C@H]1C(C)(C)O2 [Ia6, (6aR,0aR)—N-(2-(dimethylamino)ethyl)-1-hydroxy-6,6,9-trimethyl-3-pentyl-6a,7,8,10a-tetrahydro-6H-benzo[c]chromene-2-carboxamide]
Inhibition [2]: 54.46% | IC50 [2]: 9.1 µM
